In patent US20130261132A1, “CALCIUM-SENSING RECEPTOR-ACTIVE COMPOUNDS” (LEO PHARMA A/S, priority 2010, published 2013):

What was measured:
human CaSR = target: T1, human CaSR (Homo sapiens, UniProt P41180); experiment: Functional whole cell assay (modulation of human CaSR), IP1 accumulation in CHO-K1 cells; assay type: cell-based; details: CHO-K1 cells stably expressing human CaSR, final Ca2+ 1.9 mM, IP1 readout; concentration producing 50% of maximum agonistic response
T1 sequence (P41180 20-1078): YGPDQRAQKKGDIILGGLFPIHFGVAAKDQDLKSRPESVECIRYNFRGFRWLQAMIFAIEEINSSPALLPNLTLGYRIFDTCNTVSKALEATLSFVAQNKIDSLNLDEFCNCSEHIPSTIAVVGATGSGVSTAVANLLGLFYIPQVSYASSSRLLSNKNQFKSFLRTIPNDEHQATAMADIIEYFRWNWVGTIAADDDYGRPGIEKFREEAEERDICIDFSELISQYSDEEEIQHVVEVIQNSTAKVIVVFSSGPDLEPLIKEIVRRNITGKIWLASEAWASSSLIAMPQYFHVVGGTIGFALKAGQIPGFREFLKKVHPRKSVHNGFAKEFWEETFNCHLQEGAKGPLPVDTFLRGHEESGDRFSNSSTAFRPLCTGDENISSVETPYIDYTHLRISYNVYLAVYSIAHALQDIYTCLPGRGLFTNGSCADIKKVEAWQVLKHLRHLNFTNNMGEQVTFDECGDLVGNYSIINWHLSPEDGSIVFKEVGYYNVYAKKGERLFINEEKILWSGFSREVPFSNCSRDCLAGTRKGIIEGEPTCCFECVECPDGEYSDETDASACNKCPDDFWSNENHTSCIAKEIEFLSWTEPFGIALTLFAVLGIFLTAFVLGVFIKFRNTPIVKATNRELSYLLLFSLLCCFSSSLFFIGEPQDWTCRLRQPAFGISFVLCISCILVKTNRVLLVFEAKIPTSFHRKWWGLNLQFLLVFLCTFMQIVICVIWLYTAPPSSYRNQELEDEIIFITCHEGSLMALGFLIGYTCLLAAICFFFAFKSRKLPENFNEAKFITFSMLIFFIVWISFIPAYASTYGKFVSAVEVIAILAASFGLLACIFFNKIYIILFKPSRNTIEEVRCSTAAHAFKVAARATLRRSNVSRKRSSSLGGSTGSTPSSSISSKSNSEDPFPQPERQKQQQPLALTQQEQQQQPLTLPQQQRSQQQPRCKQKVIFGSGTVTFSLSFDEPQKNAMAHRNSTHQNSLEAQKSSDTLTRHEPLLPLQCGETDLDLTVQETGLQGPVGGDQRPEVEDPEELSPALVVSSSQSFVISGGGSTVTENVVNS
Description: The assay investigates a compound's functional ability to act as a biological positive modulator on the human CaSR. Activation of the receptor expressed on CHO-K1 cells is detected through the G alpha q pathway, the activation of phospholipase C and the accumulation of intracellular inositol phosphate (IP) as described earlier [Sandrine Ferry, Bruno Chatel, Robert H. Dodd, Christine Lair, Danielle Gully, Jean-Pierre Maffrand, and Martial Ruat. Effects of Divalent Cations and of a Calcimimetic on Adrenocorticotropic Hormone Release in Pituitary Tumor Cells. Biochemical and biophysical research Communications 238, 866-873 (1997)]. The human CaSR is stably expressed on a CHO-K1 cell clone, stimulated with a basal level of calcium and challenged with the tested compound. The level of IP1 is determined using the IP-One Terbium htrf kit (Cisbio, France). CHO-K1 cells not transfected with the CaSR fail to elicit an IP1 response upon calcium and/or compound stimulation.
The ORF coding for the human CaSR (genebank: NM_000388) was acquired from Invitrogen Corp, USA and subsequently cloned into the mammalian expression vector pCDA3.1.
CHO-K1 cells were transfected using Lipofectamine according to manufacturer's protocol (400.000 cells/well were seeded in a 6-well plate and transfected after 24 hours using 2 μg DNA and 5 μl lipofectamine). After another 24 hours the cells were detached, seeded and subjected to 1 mg/ml of G-418. Following 7 days growth single clones were picked, the CaSR expression evaluated using the 5C10 antibody against CaSR, the clones with the highest expression were selected and tested for functional response. The preferred clone was cultured according to standard procedures described in ATCC (American Type Culture Collection) protocols for CHO-K1 with the addition of 500 μg/ml G-418.
On the assay day, cells were thawed, harvested and resuspended to 4*10^6 cells/ml in stimulation buffer (containing: Hepes 10 mM, MgCl2 0.5 mM, KCl 4.2 mM, NaCl 146 mM, glucose 5.5 mM, LiCl 50 mM, BSA 0.5% at pH 7.4). Ten μl cell solution was pipetted into wells of a white 384-well plate (Perkin Elmer Optiplate) containing 2 μl compound diluted in assay buffer (containing: Hepes 10 mM, MgCl2 0.5 mM, KCl 4.2 mM, NaCl 146 mM, glucose 5.5 mM, LiCl 50 mM, CaCl2 11.4 mM at pH 7.4), resulting in a final Ca^2+ concentration of 1.9 mM. After compound stimulation for 1 hour at 37° C. and 15 min at room temperature, 10 ul of IP-One assay detection reagent (prepared as described by the IP-One assay kit manufacturer) was added and the plate was incubated for another 1 hour at room temperature. Finally the plate was read using a Perkin Elmer EnVision, according to the protocol supplied by the IP-One assay kit manufacturer. The FRET ratio was calculated by dividing the 665 nm emission signal with that of the 615 nm.
The molar concentration of a compound that produces 50% of the maximum agonistic response (the […] value) is calculated according to the equation “General sigmoidal curve with Hill slope, a to d” (Equation 1). This model describes a sigmoidal curve with an adjustable baseline. The equation can be used to fit curves where response is either increasing or decreasing with respect to the independent variable, X. […]
y=(a−d)/(1+(x/c)̂b)+d Equation 1 x=concentration of tested compound […]
a=min response as compound concentration approaches 0 d=max response as concentration of tested compound is increasing […]
b=Hill coefficient or curve slope

[1] = Clearance in human liver microsomes; assay type: in vitro ADME; details: hepatic extraction ratio; test compound 0.5 μM, microsomes 0.5 mg/mL, NADPH 1 mM, 37° C.
Method: Test compound concentration is 0.5 μM, microsome concentration is 0.5 mg/mL and NADPH concentration is 1 mM in the incubation. The described method is performed by the liquid handling system Tecan RSP and is based on a 96-well format.
Control incubations with test compound without NADPH and test compound without microsomes are conducted to investigate non-CYP mediated metabolism and stability in phosphate buffer at 37° C., respectively.
The human liver microsomal suspension in phosphate buffer is mixed with NADPH. The mixture is pre-heated (7 min) to 37° C. Test compound is added, and the mixture is incubated for 30 minutes. Incubations are run in duplicate. Samples are withdrawn at predetermined stop times and mixed with methanol containing internal standard (IS) to terminate all enzyme activity and precipitate proteins. A control without NADPH (to detect problems such as nonspecific protein binding, heat instability or non-CYP mediated metabolism) and a control without microsomes (for assessing compound stability in the absence of any active enzymes) are tested.
The percentage of organic solvent in the incubations is less than 1%. Careful inspections of reagents are performed prior to the start of any experiment to ensure all reagents are in solution.
The 96-well plates are centrifuged. Test compound depletion, using a compound specific LC/MS/MS method, is determined.
The logarithm of the peak area ratios of test compound to internal standard (IS) versus incubation time is plotted in a graph.
The rate constant (k) (min^−1) of test compound depletion is calculated from the linear part of the curve and the half-time (t1/2) in minutes can be calculated from the rate constant (Eq. 2).
Intrinsic clearance (CIint) (mL/min/mg protein) is calculated from: […]
where c is the microsomal protein concentration in mg/mL.
Conversion to apparent clearance (CIapp) (mL/min/kg) is done by Eq. 4:
CIapp=CIint×a×b/d (Eq. 4)
where a, b and d are the scaling factors for normalizing CIint to human body weight.
a: 45 (microsomal protein/liver weight (mg/g))
b: 1500 (liver weight (g))
Hepatic clearance (CIh) (mL/min/kg) based on the well-stirred model is described as followed:
CIh=(CIapp·Q)/(CIapp+Q) (Eq. 5)
where Q is the liver blood flow in mL/min/kg (20 in humans).
Dividing hepatic clearance with liver blood flow, the hepatic extraction ratio (%) can be calculated:
Apparent clearance below approximately 10 mL/min/kg human body weight (corresponding to extraction ratio of approx. 33%) is considered as low clearance (high metabolic stability). Apparent intrinsic clearance above approximately 60 mL/min/kg human body weight (corresponding to extraction ratio of approx. 75%) is considered as high clearance (low metabolic stability).

EC50 (human CaSR): 200 to 1000 nM | Clearance (% Eh) in human liver microsomes [1]: A (A: Eh < 33%)
Structure (SMILES): C[C@@H](N[C@H]1CC[C@@H](c2ccc(OCC(=O)NC3CCNCC3)cc2)C1)c1cccc(Cl)c1 [Compound 102, 2-[4-[(1R,3S)-3-[[(1R)-1-(3-Chlorophenyl)ethyl]amino]-cyclopentyl]-phenoxy]-N-(4-piperidyl)-acetamide]
